From the Kinase Knowledgebase extract (Sharma et al. 2016)

molecular target: CDK2 (human) (UniProt P24941); assay: Enzyme Assay

Ki, < 1000 nM:
O=c1[nH][nH]c2cc(SCC3CCCC3Nc3cc(C4CC4)[nH]n3)ccc12 (stereo not drawn)
COCCNC(=O)c1cc(Nc2cc(C)[nH]n2)nc(Sc2ccc3c(=O)[nH][nH]c3c2)n1
Cc1cc(Nc2nc(Oc3ccc4c(=O)[nH][nH]c4c3)cc3ccccc23)n[nH]1
Cn1cnc(NC2CCCC(Oc3ccc4c(=O)[nH][nH]c4c3)C2)c1 (stereo not drawn)
O=c1[nH][nH]c2cc(OCCONc3ccccn3)ccc12
Cn1cnc(NC(CCSc2ccc3c(=O)[nH][nH]c3c2)c2ccccc2)c1 (stereo not drawn)
O=c1[nH][nH]c2ccc(C3CCC(Nc4ccccn4)C3)cc12 (stereo not drawn)
Cc1cnc(NC2CCCC(Sc3ccc4c(=O)[nH][nH]c4c3)C2)s1 (stereo not drawn)
Cc1nc(Oc2ccc3c(=O)[nH][nH]c3c2)nc(Nc2cc(C3CC3)[nH]n2)c1C
Cc1cnc(NCCONc2ccc3c(=O)[nH][nH]c3c2)s1
Cc1cnc(NC2COCC(Sc3ccc4c(=O)[nH][nH]c4c3)C2)s1 (stereo not drawn)
O=c1[nH][nH]c2cc(CCCCNc3nccnn3)ccc12
O=c1[nH][nH]c2cc(NCCONc3nccnn3)ccc12
Cc1cnc(NC(CCOc2ccc3c(=O)[nH][nH]c3c2)c2ccccc2)s1 (stereo not drawn)
O=c1[nH][nH]c2cc(SC(CCNc3ccccn3)Cc3ccccc3)ccc12 (stereo not drawn)
O=c1[nH][nH]c2cc(CCCCNc3cc(C4CC4)[nH]n3)ccc12
CC(=O)Nc1ccc(Sc2cc(Nc3cc(C)[nH]n3)nc(-c3ccc4[nH][nH]c(=O)c4c3)n2)cc1
O=c1[nH][nH]c2cc(CCC3CCCC3Nc3nccnn3)ccc12 (stereo not drawn)
Cc1cc(Nc2ccnc(Sc3ccc4c(=O)[nH][nH]c4c3)c2)n[nH]1
Cn1cnc(NC2COCC(Nc3ccc4c(=O)[nH][nH]c4c3)C2)c1 (stereo not drawn)
O=c1[nH][nH]c2cc(Oc3nccc(Nc4cc(C5CC5)[nH]n4)n3)ccc12
O=c1[nH][nH]c2ccc(-c3nc4c(c(Nc5n[nH]c6ccc(F)cc56)n3)CCNC4)c(C(F)(F)F)c12
CCCCOC(=O)c1cc(Nc2cc(C)[nH]n2)nc(Sc2ccc3c(=O)[nH][nH]c3c2)n1
Cc1cc(Nc2cnnc(-c3ccc4[nH][nH]c(=O)c4c3)c2)n[nH]1
CNc1cnc(-c2ccc3[nH][nH]c(=O)c3c2C(F)(F)F)nc1Nc1n[nH]c2ccccc12
O=c1[nH][nH]c2cc(COCc3nc(Nc4cc(C5CC5)[nH]n4)c4ccccc4n3)ccc12
O=c1[nH][nH]c2cc(NCC3CCCC3Nc3ccccn3)ccc12 (stereo not drawn)
O=c1[nH][nH]c2cc(Nc3nc(Nc4n[nH]c5ncccc45)c4ccccc4n3)ccc12
CC(C)c1cc2[nH][nH]c(=O)c2cc1-c1nc(Nc2n[nH]c3ccccc23)c2ccccc2n1
CCc1c(-c2nc(Nc3cc(C)[nH]n3)c3ccccc3n2)ccc2[nH][nH]c(=O)c12
O=c1[nH][nH]c2cc(SC3CCCC(Nc4nccnn4)C3)ccc12 (stereo not drawn)
O=c1[nH][nH]c2cc(Oc3cc(Nc4cc(C5CC5)[nH]n4)ccn3)ccc12
O=c1[nH][nH]c2cc(SCCC(Nc3nccnn3)c3ccccc3)ccc12 (stereo not drawn)
O=C(CC(=O)Nc1cc(C2CC2)[nH]n1)Nc1ccc2c(=O)[nH][nH]c2c1
Cc1cnc(NC(=O)CCOc2ccc3c(=O)[nH][nH]c3c2)s1
O=c1[nH][nH]c2cc(OC3CCCC(Nc4cc(C5CC5)[nH]n4)C3)ccc12 (stereo not drawn)
O=c1[nH][nH]c2cc(Nc3nc(Nc4cc(-c5ccco5)[nH]n4)c4ccccc4n3)ccc12
CC(=O)NC1CCC(c2nc(-c3cc4c(=O)[nH][nH]c4cc3C(F)(F)F)nc(Nc3n[nH]c4ccccc34)c2C)CC1 (stereo not drawn)
Cc1cc(Nc2nc(CSc3ccc4[nH][nH]c(=O)c4c3)nc3ccccc23)n[nH]1
Cn1cnc(NC2CCCC(C(C)(C)c3ccc4c(=O)[nH][nH]c4c3)C2)c1 (stereo not drawn)
Cc1cc(Nc2cc(C)[nH]n2)nc(C2(c3ccc4c(=O)[nH][nH]c4c3)CC2)n1
O=c1[nH][nH]c2cc(Cc3nc(Nc4cc(C5CC5)[nH]n4)c4ccccc4n3)ccc12
O=C(CC(=O)Oc1ccc2c(=O)[nH][nH]c2c1)Nc1nccnn1
O=c1[nH][nH]c2ccc(-c3nc(Nc4n[nH]c5c4CCCC5)c4ccccc4n3)c(C(F)(F)F)c12
O=c1[nH][nH]c2cc(C(F)(F)F)c(-c3cc(-c4ccccc4)cc(Nc4n[nH]c5ccccc45)n3)cc12
Nc1c(Nc2ccc3c(=O)[nH][nH]c3c2)ncnc1Nc1cc(C2CC2)[nH]n1
O=c1[nH][nH]c2cc(Oc3cc(Nc4cc(C5CC5)[nH]n4)c4ccccc4n3)ccc12
O=c1[nH][nH]c2cc(SC3COCC(Nc4cc(C5CC5)[nH]n4)C3)ccc12 (stereo not drawn)
Cc1cc(Nc2nc(CSc3ccc4[nH][nH]c(=O)c4c3)nc3c2CCCC3)n[nH]1
Cc1cc(Nc2cc(C(C)(C)OCCN(C)C)nc(Sc3ccc4c(=O)[nH][nH]c4c3)n2)n[nH]1
Cn1cnc(NCCC(=O)Cc2ccc3c(=O)[nH][nH]c3c2)c1
Cc1cnc(NC2CCC(Sc3ccc4c(=O)[nH][nH]c4c3)C2)s1 (stereo not drawn)
O=c1[nH][nH]c2cc(Nc3cccc(Nc4nccnn4)c3)ccc12
Cc1cc(Nc2cc(-c3ccco3)[nH]n2)nc(COc2ccc3c(=O)[nH][nH]c3c2)n1
O=c1[nH][nH]c2cc(SC(CCNc3nccnn3)Cc3ccccc3)ccc12 (stereo not drawn)
Cn1cnc(NC2CCCC2CNc2ccc3c(=O)[nH][nH]c3c2)c1 (stereo not drawn)
O=c1[nH][nH]c2ccc(C3CCCC(Nc4ccccn4)C3)cc12 (stereo not drawn)
COCCNc1cc(Nc2cc(C)[nH]n2)nc(SCc2ccc3c(=O)[nH][nH]c3c2)n1
O=c1[nH][nH]c2cc(Sc3cc4ccccc4c(Nc4cc(C5CC5)[nH]n4)n3)ccc12
Cc1cc(Nc2nc(Sc3ccc4c(=O)[nH][nH]c4c3)nc3cc([N+](=O)[O-])ccc23)n[nH]1
Cn1cnc(NC2CCC(Sc3ccc4c(=O)[nH][nH]c4c3)C2)c1 (stereo not drawn)
O=c1[nH][nH]c2cc(C(F)(F)F)c(-c3cc4cccnc4c(Nc4nc[nH]n4)n3)cc12
Cc1cc(Nc2nc(-c3c(C)cc4[nH][nH]c(=O)c4c3C)nc3ccccc23)n[nH]1
O=c1[nH][nH]c2cc(Nc3cccc(Nc4ccccn4)c3)ccc12
O=c1[nH][nH]c2cc(OC3CCCC(Nc4ccccn4)C3)ccc12 (stereo not drawn)
O=c1[nH][nH]c2cc(C(F)(F)F)c(-c3nc(Nc4cc(C5CC5)[nH]n4)nc(-c4ccncc4)n3)cc12
Cc1cc(Nc2cc(-c3cc4c(=O)[nH][nH]c4cc3Cl)nc3c2CCCC3)n[nH]1
O=c1[nH][nH]c2cc(NCCC(Nc3cc(C4CC4)[nH]n3)c3ccccc3)ccc12 (stereo not drawn)
Cc1cc(Nc2nc(COc3ccc4[nH][nH]c(=O)c4c3)nc3c2CCCC3)n[nH]1
NCCOc1cc(Nc2n[nH]c3ccccc23)nc(-c2cc3c(=O)[nH][nH]c3cc2C(F)(F)F)c1
O=c1[nH][nH]c2cc(Sc3nccc(Nc4cc(C5CC5)[nH]n4)n3)ccc12
O=c1[nH][nH]c2cc(Nc3ccc([N+](=O)[O-])c(Nc4ncn[nH]4)n3)ccc12
Cc1cc(Nc2nc(Sc3ccc4c(=O)[nH][nH]c4c3)nc3c(OCCCN(C)C)cccc23)n[nH]1
Cc1cnc(NCCCSc2ccc3c(=O)[nH][nH]c3c2)s1
O=c1[nH][nH]c2cc(SC3CCC(Nc4nccnn4)C3)ccc12 (stereo not drawn)
Cc1cnc(Oc2ccc3c(=O)[nH][nH]c3c2)nc1Nc1cc(C2CC2)[nH]n1
Cc1cc(Nc2cc(-c3ccccc3C)nc(Sc3ccc4c(=O)[nH][nH]c4c3)n2)n[nH]1
Cn1cnc(NC(=O)CCNc2ccc3c(=O)[nH][nH]c3c2)c1
O=c1[nH][nH]c2cc(OC3COCC(Nc4nccnn4)C3)ccc12 (stereo not drawn)
Cn1cnc(NC2CCCC2COc2ccc3c(=O)[nH][nH]c3c2)c1 (stereo not drawn)
O=c1[nH][nH]c2ccc(-c3nc4c(c(Nc5n[nH]c(C6CC6)n5)n3)CCCCC4)c(C(F)(F)F)c12
O=C(CCSc1ccc2c(=O)[nH][nH]c2c1)Nc1cc(C2CC2)[nH]n1
O=c1[nH][nH]c2ccc(-c3nc(Nc4n[nH]c5ccccc45)cc(-c4ccccn4)n3)c(C(F)(F)F)c12
O=C(CC(=O)Nc1ccccn1)Cc1ccc2c(=O)[nH][nH]c2c1
CCc1cc(Nc2cc(C)[nH]n2)nc(-c2ccc3[nH][nH]c(=O)c3c2)n1
CN1CCN(c2cc(Nc3cc(C4CC4)[nH]n3)nc(Oc3ccc4c(=O)[nH][nH]c4c3)n2)CC1
O=c1[nH][nH]c2cc(C3CC3)c(-c3nc(Nc4n[nH]c5c(F)cc(F)cc45)c4ccccc4n3)cc12
Cc1cc(Nc2cc(C)[nH]n2)nc(C(C)(C)c2ccc3c(=O)[nH][nH]c3c2)n1
